Source: article PMC2359919, “Molecular targeting of retinoic acid metabolism in neuroblastoma: the role of the CYP26 inhibitor R116010 in vitro and in vivo” (British Journal of Cancer, 2007)
Like-named read-outs stand apart in the source and are kept apart here.

Experiment: Pharmacokinetic analysis of RA in an SH-SY5Y xenograft model (retinoid concentrations in plasma, liver, tumour by LC/MS)
Type: in vivo, CD-1 nude mice
Conditions: for % Total retinoids, tumour, 0.5 h / % Total retinoids, tumour, 2 h / % Total retinoids, tumour, 6 h / % Total retinoids, liver, 0.5 h / % Total retinoids, liver, 2 h / % Total retinoids, liver, 6 h / % Total retinoids, plasma, 0.5 h / % Total retinoids, plasma, 2 h / % Total retinoids, plasma, 6 h / concentration at 0.5 h / concentration at 2 h / concentration at 6 h: label = retinoid measured; for concentration at 0.5 h / concentration at 2 h / concentration at 6 h: po
Method: All in vivo experiments were approved by the relevant institutional animal welfare committees, and performed according to national law. Female athymic nude mice (CD-1 nu/nu, Charles River) used for antitumour studies were maintained and handled in isolators, under specific pathogen-free conditions, at 24°C with a 12 h light, 12 h dark cycle. Tumours were generated by implantation of SH-SY5Y cells subcutaneously (s.c.) into one flank of CD-1 nude mice (1 × 10^7 cells per animal).
Treatments began when the tumours were between 7 and 10 mm in length and breadth. Retinoids and R116010 were initially dissolved in DMSO before 10- or 20-fold dilutions in PBS, respectively. For pharmacokinetic studies, the animals were dosed with ATRA or 13cisRA (each 100 mg kg^−1) orally for 0.5, 2 and 6 h. For metabolism studies, animals were treated with R116010 orally at doses of 1.25 or 2.5 mg kg^−1 either immediately before the retinoid being studied, or up to three times (over 1–2 days) before dosing with the retinoid. At termination of experiments, animals were bled under terminal anaesthesia then killed by cervical dislocation. Plasma was immediately removed from the blood by centrifugation at 1000 g for 5 min and snap-frozen in liquid nitrogen in amber Eppendorfs. Tumour and liver samples were removed and snap-frozen, wrapped in foil, in liquid nitrogen.
Cell pellets obtained from retinoid incubations were re-suspended in 2 ml cell culture medium and disrupted by passing the samples several times through a syringe and hypodermic needle (25G × 1 inches, 0.5 mm × 25 mm; Terumo, Somerset, NJ, USA). Tumour and liver tissues were re-suspended in PBS and homogenised (T25 homogeniser, IKA Laboratories, Staufen, Germany). Retinoids were extracted as described previously ([Veal et al, 2002]; [Armstrong et al, 2005b]). Samples were reconstituted in 200 μl mobile phase A (n-hexane:dichloromethane:propan-2-ol, 400 : 1 : 0.27) and analysed by normal-phase HPLC as described previously ([Veal et al, 2002]). For LC/MS analysis, samples were reconstituted in 200 μl mobile phase A (50% acetonitrile, 50% (0.2%) acetic acid, v v^−1).
Resolution of retinoids was performed with a Luna C18(2) column (3 μm, 50 mm × 2 mm) using a Perkin Elmer LC (Beaconsfield, UK) system, consisting of a vacuum degasser, two series 200 pumps, a thermostatically controlled series 200 autosampler and a Waters 2487 UV absorbance detector. Retinoic isomers and metabolites were separated by gradient reversed-phase chromatography. An injection volume of 20 μl with a flow rate of 0.2 ml min^−1 was used with mobile phase A (50% acetonitrile, 50% (0.2%) acetic acid, v v^−1) and mobile phase B (acetonitrile, 0.1% acetic acid, v v^−1). Linear gradients were employed between the specified times as follows: 0, 100% A; 5 min, 100% A; 15 min, 100% B; 20 min, 100% B; 23 min, 100% A; 35 min, 100% A. An Applied Biosystems (Warrington, UK) API-2000 LC/MS/MS triple Q (quadrupole) mass spectrometer with electrospray ionisation source, controlled by Analyst software, was operated in single quadrupole negative mode for the detection of compounds.

[1] = after 13cisRA 100 mg kg^−1 oral, SH-SY5Y tumour
[2] = after 13cisRA 100 mg kg^−1 oral, liver
[3] = after 13cisRA 100 mg kg^−1 oral, plasma
[4] = after ATRA 100 mg kg^−1 oral, SH-SY5Y tumour
[5] = after ATRA 100 mg kg^−1 oral, liver
[6] = after ATRA 100 mg kg^−1 oral, plasma

CC1=C(/C=C/C(C)=C/C=C/C(C)=C/C(=O)O)C(C)(C)CCC1 [ATRA, all-trans-retinoic acid]
Plasma % of total retinoids at all time points (after 13cisRA 100 mg kg^−1, plasma, 0.5, 2 and 6 h): < 10%
% Total retinoids, tumour, 0.5 h [1]: 7%
% Total retinoids, tumour, 2 h [1]: 14%
% Total retinoids, tumour, 6 h [1]: 16%
% Total retinoids, liver, 0.5 h [2]: 2%
% Total retinoids, liver, 2 h [2]: 1%
% Total retinoids, liver, 6 h [2]: <1%
% Total retinoids, plasma, 0.5 h [3]: 5%
% Total retinoids, plasma, 2 h [3]: 3%
% Total retinoids, plasma, 6 h [3]: 1%
Intratumoral % of total retinoids at all time points (after ATRA 100 mg kg^−1, tumour, 0.5, 2 and 6 h): ≥ 80%
% Total retinoids, tumour, 0.5 h [4]: 90%
% Total retinoids, tumour, 2 h [4]: 95%
% Total retinoids, tumour, 6 h [4]: 80%
% Total retinoids, liver, 0.5 h [5]: 77%
% Total retinoids, liver, 2 h [5]: 81%
% Total retinoids, liver, 6 h [5]: 46%
% Total retinoids, plasma, 0.5 h [6]: 91%
% Total retinoids, plasma, 2 h [6]: 88%
% Total retinoids, plasma, 6 h [6]: 70%
concentration at 0.5 h (female, CD-1 nu/nu (athymic nude), mouse, liver, 100 mg kg^−1, after 13cisRA 100 mg kg^−1 oral, liver, read-out: Liver concentration, 0.5 h): 120 ± 80 ng/g
concentration at 2 h (female, CD-1 nu/nu (athymic nude), mouse, liver, 100 mg kg^−1, after 13cisRA 100 mg kg^−1 oral, liver, read-out: Liver concentration, 2 h): 50 ± 50 ng/g
concentration at 6 h (female, CD-1 nu/nu (athymic nude), mouse, liver, 100 mg kg^−1, after 13cisRA 100 mg kg^−1 oral, liver, read-out: Liver concentration, 6 h): 20 ± 20 ng/g
concentration at 0.5 h (female, CD-1 nu/nu (athymic nude), mouse, liver, 100 mg kg^−1, after ATRA 100 mg kg^−1 oral, liver, read-out: Liver concentration, 0.5 h): 3070 ± 1950 ng/g
concentration at 2 h (female, CD-1 nu/nu (athymic nude), mouse, liver, 100 mg kg^−1, after ATRA 100 mg kg^−1 oral, liver, read-out: Liver concentration, 2 h): 6920 ± 1130 ng/g
concentration at 6 h (female, CD-1 nu/nu (athymic nude), mouse, liver, 100 mg kg^−1, after ATRA 100 mg kg^−1 oral, liver, read-out: Liver concentration, 6 h): 2400 ± 360 ng/g
concentration at 0.5 h (female, CD-1 nu/nu (athymic nude), mouse, plasma, 100 mg kg^−1, after 13cisRA 100 mg kg^−1 oral, plasma, read-out: Plasma concentration, 0.5 h): 0.69 ± 0.49 µM
concentration at 2 h (female, CD-1 nu/nu (athymic nude), mouse, plasma, 100 mg kg^−1, after 13cisRA 100 mg kg^−1 oral, plasma, read-out: Plasma concentration, 2 h): 0.57 ± 0.57 µM
concentration at 6 h (female, CD-1 nu/nu (athymic nude), mouse, plasma, 100 mg kg^−1, after 13cisRA 100 mg kg^−1 oral, plasma, read-out: Plasma concentration, 6 h): 0.08 ± 0.08 µM
concentration at 0.5 h (female, CD-1 nu/nu (athymic nude), mouse, plasma, 100 mg kg^−1, after ATRA 100 mg kg^−1 oral, plasma, read-out: Plasma concentration, 0.5 h): 13 ± 10.4 µM
concentration at 2 h (female, CD-1 nu/nu (athymic nude), mouse, plasma, 100 mg kg^−1, after ATRA 100 mg kg^−1 oral, plasma, read-out: Plasma concentration, 2 h): 24.4 ± 1.94 µM
concentration at 6 h (female, CD-1 nu/nu (athymic nude), mouse, plasma, 100 mg kg^−1, after ATRA 100 mg kg^−1 oral, plasma, read-out: Plasma concentration, 6 h): 12.8 ± 4.61 µM
Tmax (female, CD-1 nu/nu (athymic nude), mouse, plasma, 100 mg kg^−1 oral, sampled at 0.5, 2, 6 h, read-out: Time of peak plasma levels): 2 h
concentration at 0.5 h (female, CD-1 nu/nu (athymic nude), mouse, tumour (SH-SY5Y xenograft), 100 mg kg^−1, after 13cisRA 100 mg kg^−1 oral, SH-SY5Y tumour, read-out: Tumour concentration, 0.5 h): 150 ± 90 ng/g
concentration at 2 h (female, CD-1 nu/nu (athymic nude), mouse, tumour (SH-SY5Y xenograft), 100 mg kg^−1, after 13cisRA 100 mg kg^−1 oral, SH-SY5Y tumour, read-out: Tumour concentration, 2 h): 370 ± 160 ng/g
concentration at 6 h (female, CD-1 nu/nu (athymic nude), mouse, tumour (SH-SY5Y xenograft), 100 mg kg^−1, after 13cisRA 100 mg kg^−1 oral, SH-SY5Y tumour, read-out: Tumour concentration, 6 h): 90 ± 20 ng/g
concentration at 0.5 h (female, CD-1 nu/nu (athymic nude), mouse, tumour (SH-SY5Y xenograft), 100 mg kg^−1, after ATRA 100 mg kg^−1 oral, SH-SY5Y tumour, read-out: Tumour concentration, 0.5 h): 2590 ± 2280 ng/g
concentration at 2 h (female, CD-1 nu/nu (athymic nude), mouse, tumour (SH-SY5Y xenograft), 100 mg kg^−1, after ATRA 100 mg kg^−1 oral, SH-SY5Y tumour, read-out: Tumour concentration, 2 h): 9410 ± 2230 ng/g
concentration at 6 h (female, CD-1 nu/nu (athymic nude), mouse, tumour (SH-SY5Y xenograft), 100 mg kg^−1, after ATRA 100 mg kg^−1 oral, SH-SY5Y tumour, read-out: Tumour concentration, 6 h): 3780 ± 590 ng/g
